What follows are molecules tested against T1, mutant form of the human GPR119 receptor (Homo sapiens, UniProt Q8TDV5, S329A/T327A) (assay: LANCE cAMP-384 assay in HEK293 cells stably expressing a mutant form of the human GPR119 receptor). Conditions: cAMP accumulation, GPR119 stable HEK293 cells, LANCE kit, 20 min at 37° C.
T1 construct: expressed in transfected cells
T1 sequence (Q8TDV5 with tags, fused parts or gaps T327A/S329A): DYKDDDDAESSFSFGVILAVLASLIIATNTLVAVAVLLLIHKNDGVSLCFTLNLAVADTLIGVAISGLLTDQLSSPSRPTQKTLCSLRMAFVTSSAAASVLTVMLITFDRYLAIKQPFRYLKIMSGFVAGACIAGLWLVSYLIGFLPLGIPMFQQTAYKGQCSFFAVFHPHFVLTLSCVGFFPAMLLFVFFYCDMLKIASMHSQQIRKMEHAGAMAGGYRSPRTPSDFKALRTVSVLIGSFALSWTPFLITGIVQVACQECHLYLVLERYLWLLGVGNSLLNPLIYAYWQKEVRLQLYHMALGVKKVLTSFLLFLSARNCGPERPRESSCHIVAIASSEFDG
Type: cell-based
Procedure: Quantitative detection of cAMP accumulation from cells expressing human GPR119 receptor is achieved using Perkin Elmer's LANCE cAMP-384 Kit (Cat#AD0264) according to the manufacturer's protocol. Briefly, HEK293 cells stably expressing a mutant form of the human GPR119 receptor as assay tool (Methionine 1 replaced with the amino acid sequence […], and T327 & S329 changed to alanines; SEQ ID No. 1) are grown to 50-70% confluency in cell culture media (DMEM, 10% heat inactivated Fetal Bovine Serum, 50 I.U./mL penicillin, 50 μg/mL streptomycin, 10 mM HEPES, 20 μg/mL G418 Sulfate). On the day of the assay, GPR119 stable HEK293 cells are lifted from the tissue culture plate and 1000 cells/well are incubated along with various concentrations of test compounds for 20 min at 37° C. Detection Buffer (50 mM HEPES, 10 mM calcium chloride, 0.35% Triton X-100, 1 mg/mL BSA) containing cAMP-specific antibody is then added to all wells and allowed to equilibrate in the dark for 10 minutes at room temperature. Upon equilibration, Detection Buffer containing europium-labeled cAMP tracer complex is added to all wells and allowed to react for 1 hour at room temperature. After 1 hour, bound europium-labeled cAMP tracer is measured using a Perkin Elmer Envision plate reader. The quantity of cAMP generated in each well is derived from a standard curve. EC50 is determined using nonlinear regression analysis of the cAMP values over a range of agonist concentration (12 points spanning the range from 30 μM to 100 pM).

How did the EC50 turn out when `Cc1ncnn1-c1ccc(C(=O)N(C2CC2)[C@H]2CCN(c3ccc(C(F)(F)F)cn3)C[C@H]2F)cn1` (single isomer, unassigned) [Example 69] was run?
The EC50 was 496 nM.

With `Cc1nnnn1-c1ccc(C(=O)N(C2CC2)[C@H]2CCN(c3ccc(C(F)(F)F)cn3)C[C@H]2F)cn1` (single isomer, unassigned) [Example 70] as the molecule, how does the EC50 read?
Its EC50 is 127 nM.

How did the EC50 turn out when `O=C(c1cnc(-n2cncn2)cn1)N(C1CC1)[C@H]1CCN(c2ccc(C(F)(F)F)cn2)C[C@H]1F` (single isomer, unassigned) [Example 71] was run?
Its EC50 is 94 nM.

For `Cc1nccn1-c1ncc(C(=O)N(C2CC2)[C@H]2CCN(c3ccc(C(F)(F)F)cn3)C[C@H]2F)cn1` (single isomer, unassigned) [Example 72], which EC50 is on record?
Its EC50 is 56 nM.

How did the EC50 turn out when `Cc1nccn1-c1ccc(C(=O)N(C2CC2)[C@H]2CCN(c3ccc(C(F)(F)F)cn3)C[C@H]2F)cn1` (single isomer, unassigned) [Example 73] was run?
Its EC50 is 391 nM.

How did the EC50 turn out when `Cc1ncn(-c2cnc(C(=O)N(C3CC3)[C@H]3CCN(c4ccc(C(F)(F)F)cn4)C[C@H]3F)cn2)n1` (single isomer, unassigned) [Example 74] was run?
Its EC50 is 411 nM.

With `Cc1nccn1-c1cnc(C(=O)N(C2CC2)[C@H]2CCN(c3ccc(C(F)(F)F)cn3)C[C@H]2F)cn1` (single isomer, unassigned) [Example 75] as the molecule, how does the EC50 read?
The EC50 was 341 nM.

How did the EC50 turn out when `Cc1ncnn1-c1ccc(C(=O)N(C2CC2)[C@@H]2CCN(c3ccc(C(F)(F)F)cn3)C[C@@H]2F)cn1` (single isomer, unassigned) [Example 76] was run?
The EC50 was 46 nM.

Which EC50 does the source give for `Cc1nnnn1-c1ccc(C(=O)N(C2CC2)[C@@H]2CCN(c3ccc(C(F)(F)F)cn3)C[C@@H]2F)cn1` (single isomer, unassigned) [Example 77] here?
Its EC50 is 13 nM.

For `O=C(c1cnc(-n2cncn2)cn1)N(C1CC1)[C@@H]1CCN(c2ccc(C(F)(F)F)cn2)C[C@@H]1F` (single isomer, unassigned) [Example 78], which EC50 is on record?
The EC50 was 9 nM.

With `O=C(c1cnc(-n2cncn2)nc1)N(C1CC1)[C@@H]1CCN(c2ccc(C(F)(F)F)cn2)C[C@@H]1F` (single isomer, unassigned) [Example 80] as the molecule, how does the EC50 read?
The EC50 was 111 nM.

Which EC50 does the source give for `Cc1nccn1-c1ccc(C(=O)N(C2CC2)[C@@H]2CCN(c3ccc(C(F)(F)F)cn3)C[C@@H]2F)cn1` (single isomer, unassigned) [Example 81] here?
Its EC50 is 34 nM.

Which EC50 does the source give for `Cc1ncn(-c2cnc(C(=O)N(C3CC3)[C@@H]3CCN(c4ccc(C(F)(F)F)cn4)C[C@@H]3F)cn2)n1` (single isomer, unassigned) [Example 82] here?
Its EC50 is 35 nM.

For `Cc1nccn1-c1cnc(C(=O)N(C2CC2)[C@@H]2CCN(c3ccc(C(F)(F)F)cn3)C[C@@H]2F)cn1` (single isomer, unassigned) [Example 83], which EC50 is on record?
The EC50 was 12 nM.

With `CCc1cnc(N2CC[C@@H](N(C(=O)c3ccc(-n4ncnc4C)nc3)C3CC3)[C@@H](F)C2)nc1` (single isomer, unassigned) [Example 84] as the molecule, how does the EC50 read?
The EC50 was 15 nM.

Which EC50 does the source give for `CCc1cnc(N2CC[C@@H](N(C(=O)c3ccc(-n4nnnc4C)nc3)C3CC3)[C@@H](F)C2)nc1` (single isomer, unassigned) [Example 85] here?
The EC50 was 20 nM.

With `CCc1cnc(N2CC[C@@H](N(C(=O)c3cnc(-n4cncn4)cn3)C3CC3)[C@@H](F)C2)nc1` (single isomer, unassigned) [Example 86] as the molecule, how does the EC50 read?
Its EC50 is 5 nM.

How did the EC50 turn out when `CCc1cnc(N2CC[C@@H](N(C(=O)c3cnc(-n4ccnc4C)nc3)C3CC3)[C@@H](F)C2)nc1` (single isomer, unassigned) [Example 87] was run?
The EC50 was 4 nM.

How did the EC50 turn out when `CCc1cnc(N2CC[C@@H](N(C(=O)c3ccc(-n4ccnc4C)nc3)C3CC3)[C@@H](F)C2)nc1` (single isomer, unassigned) [Example 88] was run?
The EC50 was 29 nM.

With `CCc1cnc(N2CC[C@@H](N(C(=O)c3cnc(-n4cnc(C)n4)cn3)C3CC3)[C@@H](F)C2)nc1` (single isomer, unassigned) [Example 89] as the molecule, how does the EC50 read?
The EC50 was 18 nM.

`CCc1cnc(N2CC[C@@H](N(C(=O)c3cnc(-n4ccnc4C)cn3)C3CC3)[C@@H](F)C2)nc1` (single isomer, unassigned) [Example 90] was tested. Which EC50 did it give?
The EC50 was 44 nM.

How did the EC50 turn out when `CCc1cnc(N2CC[C@@H](N(C(=O)c3cnc(-n4cncn4)nc3)C3CC3)[C@@H](F)C2)nc1` (single isomer, unassigned) [Example 91] was run?
The EC50 was 202 nM.

Which EC50 does the source give for `CCc1cnc(N2CC[C@@H](N(C(=O)c3cnc(-n4cncn4)cn3)C3CC3)[C@@H](F)C2)nc1` (single isomer, unassigned) [Example 92] here?
The EC50 was 609 nM.

For `Cc1ncnn1-c1ccc(C(=O)N(C2CC2)[C@@H]2CCN(c3ncc(Cl)cn3)C[C@@H]2F)cn1` (single isomer, unassigned) [Example 93], which EC50 is on record?
Its EC50 is 24 nM.

Which EC50 does the source give for `Cc1nnnn1-c1ccc(C(=O)N(C2CC2)[C@@H]2CCN(c3ncc(Cl)cn3)C[C@@H]2F)cn1` (single isomer, unassigned) [Example 94] here?
Its EC50 is 8 nM.

For `Cc1nccn1-c1ncc(C(=O)N(C2CC2)[C@@H]2CCN(c3ncc(Cl)cn3)C[C@@H]2F)cn1` (single isomer, unassigned) [Example 95], which EC50 is on record?
Its EC50 is 7 nM.

With `O=C(c1cnc(-n2cncn2)nc1)N(C1CC1)[C@@H]1CCN(c2ncc(Cl)cn2)C[C@@H]1F` (single isomer, unassigned) [Example 96] as the molecule, how does the EC50 read?
Its EC50 is 65 nM.

How did the EC50 turn out when `Cc1nccn1-c1ccc(C(=O)N(C2CC2)[C@@H]2CCN(c3ncc(Cl)cn3)C[C@@H]2F)cn1` (single isomer, unassigned) [Example 97] was run?
The EC50 was 32 nM.

For `Cc1ncn(-c2cnc(C(=O)N(C3CC3)[C@@H]3CCN(c4ncc(Cl)cn4)C[C@@H]3F)cn2)n1` (single isomer, unassigned) [Example 98], which EC50 is on record?
The EC50 was 14 nM.

For `Cc1nccn1-c1cnc(C(=O)N(C2CC2)[C@@H]2CCN(c3ncc(Cl)cn3)C[C@@H]2F)cn1` (single isomer, unassigned) [Example 99], which EC50 is on record?
The EC50 was 18 nM.

`Cc1ncnn1-c1ncc(C(=O)N(C2CC2)[C@@H]2CCN(c3ncc(Cl)cn3)C[C@@H]2F)cn1` (single isomer, unassigned) [Example 100] was tested. Which EC50 did it give?
Its EC50 is 136 nM.

With `Cc1nccn1-c1ncc(C(=O)N(C2CC2)[C@@H]2CCN(c3ncc(C(F)(F)F)cn3)C[C@@H]2F)cn1` (single isomer, unassigned) [Example 101] as the molecule, how does the EC50 read?
The EC50 was 5 nM.

For `O=C(c1cnc(-n2cncn2)nc1)N(C1CC1)[C@@H]1CCN(c2ncc(C(F)(F)F)cn2)C[C@@H]1F` (single isomer, unassigned) [Example 102], which EC50 is on record?
The EC50 was 50 nM.

Which EC50 does the source give for `Cc1ncnn1-c1ncc(C(=O)N(C2CC2)[C@@H]2CCN(c3ccc(C(F)(F)F)cn3)C[C@@H]2F)cn1` (single isomer, unassigned) [Example 103] here?
The EC50 was 391 nM.

`CCc1cnc(N2CC[C@@H](N(C(=O)c3cn(-c4ccc(C#N)cn4)cn3)C3CC3)[C@@H](F)C2)nc1` (single isomer, unassigned) [Example 107] was tested. Which EC50 did it give?
The EC50 was 188 nM.

With `CCc1cnc(N2CC[C@@H](N(C(=O)c3cn(-c4ccc(S(C)(=O)=O)cc4F)cn3)C3CC3)[C@@H](F)C2)nc1` (single isomer, unassigned) [Example 108] as the molecule, how does the EC50 read?
Its EC50 is 82 nM.

For `CCc1cnc(N2CCC(N(C(=O)c3cn(-c4ccc(C#N)cc4F)cn3)C3CC3)C(F)C2)nc1` (single isomer, unassigned) [Example 109], which EC50 is on record?
Its EC50 is 53 nM.

With `CCc1cnc(N2CC[C@@H](N(C(=O)c3cn(-c4ccc(C#N)cn4)c(C)n3)C3CC3)[C@@H](F)C2)nc1` (single isomer, unassigned) [Example 110] as the molecule, how does the EC50 read?
The EC50 was 363 nM.

For `CCc1cnc(N2CC[C@@H](N(C(=O)c3cn(-c4ccc(S(C)(=O)=O)cc4F)c(C)n3)C3CC3)[C@@H](F)C2)nc1` (single isomer, unassigned) [Example 111], which EC50 is on record?
The EC50 was 1610 nM.

Source: US8921398B2 (Boehringer Ingelheim International GmbH, priority 2011, dated 2014)
